The source of these data is ChEMBL document CHEMBL5506023, “Design, Synthesis, and Evaluation of Dihydropyrimidine Derivatives as Selective PDE1 Inhibitors for the Treatment of Liver Fibrosis” (J Med Chem, 2024).

Data set [1] concerns LX-2. As to the kind of experiment: Antifibrotic activity against TGF-beta induced human LX-2 cell activation assessed as downregulation of fibronectin expression incubated for 48 hrs by Western blotting analysis. The data set is classed as functional, cell-based. On the technique in general: Immunoblotting shows a protein as a band on a membrane.
Data set [2] can be described thus: Selectivity index, ratio of IC50 for inhibition of PDE1C2 (147 to 531 residues) (unknown origin) using 3H-cGMP as substrate to IC50 for inhibition of PDE8A (480 to 820 residues) (unknown origin) using 3H-cAMP as substrate.
Data set [3] can be described thus: Half life in rat liver microsomes at 1.5 uM. The class given is ADME, Microsome. Background: Liver microsomes are a subcellular fraction often used to study metabolism.
The test system of data set [4] is Rattus norvegicus. As to the kind of experiment: Antifibrotic activity against bile duct ligation induced Sprague-Dawley rat liver fibrosis model assessed as reduction in AST level at 2.5 mg/kg,ip administrated once daily for 21 days. The data set is classed as functional, organism-based. The settings on record: time 21.0 day.
The test system of data set [5] is Rattus norvegicus. The experiment in a line: Antifibrotic activity against bile duct ligation induced Sprague-Dawley rat liver fibrosis model assessed as reduction in fibrotic lesion at 2.5 mg/kg,ip administrated once daily for 21 days by hematoxylin and eosin staining based analysis. The data set is classed as functional, organism-based. Conditions: time 21.0 day.

For data set [6], the target named is High affinity 3',5'-cyclic-AMP phosphodiesterase 7A (Homo sapiens, UniProt Q13946). As to the kind of experiment: Inhibition of PDE7A (130 to 482 residues) (unknown origin) using 3H-cAMP as substrate.
Data set [7] in a line: Observed volume of distribution at steady state in Sprague-Dawley rat at 2.5 mg/kg,iv administration. Conditions: in vivo, read-out: Vdss. The data set is classed as ADME, organism-based.
Another data set has as its target Cytochrome P450 3A4 (Homo sapiens, UniProt P08684). As to the kind of experiment: Inhibition of CYP3A4-M in human liver microsomes in presence of NADPH. The data set is classed as ADME, Microsome.
A short description of data set [8]: Observed clearance in Sprague-Dawley rat at 2.5 mg/kg,iv administration. The class given is ADME, organism-based. Conditions: in vivo.
Data set [9] has as its system Rattus norvegicus. As to the kind of experiment: Antifibrotic activity against bile duct ligation induced Sprague-Dawley rat liver fibrosis model assessed as downregulation of alpha-SMA expression in liver at 2.5 mg/kg,ip administrated once daily for 21 days by Western blotting analysis. The data set is classed as functional, organism-based. The settings on record: time 21.0 day.

Another data set concerns the target Cytochrome P450 2C19 (Homo sapiens, UniProt P33261). As to the kind of experiment: Inhibition of CYP2C19 in human liver microsomes in presence of NADPH. The data set is classed as ADME, Microsome.
Data set [10] in a line: Selectivity index, ratio of IC50 for inhibition of PDE1C2 (147 to 531 residues) (unknown origin) using 3H-cGMP as substrate to IC50 for inhibition of PDE2A (580 to 919 residues) (unknown origin) using 3H-cGMP as substrate.
Data set [11] deals with Dual specificity calcium/calmodulin-dependent 3',5'-cyclic nucleotide phosphodiesterase 1C (Homo sapiens, UniProt Q14123). As to the kind of experiment: Inhibition of PDE1C2 (147 to 531 residues) (unknown origin) using 3H-cGMP as substrate incubated for 15 mins by liquid scintillation counter analysis.
The subject of data set [12] is Rattus norvegicus. As to the kind of experiment: Antifibrotic activity against bile duct ligation induced Sprague-Dawley rat liver fibrosis model assessed as increase in cAMP level in liver at 2.5 mg/kg,ip administrated once daily for 21 days by ELISA. The class given is functional, organism-based. The settings on record: time 21.0 day.
The subject of data set [13] is LX-2. As to the kind of experiment: Antifibrotic activity against TGF-beta induced human LX-2 cell activation assessed as reduction in cell proliferation at 2.5 to 10 uM incubated for 48 hrs by Edu staining based analysis. The data set is classed as functional. The settings on record: dose 2.5-10 µM.
Data set [14] deals with cGMP-inhibited 3',5'-cyclic phosphodiesterase 3A (Homo sapiens, UniProt Q14432). The experiment in a line: Inhibition of PDE3A (679 to 1087 residues) (unknown origin) using 3H-cAMP as substrate.
Data set [15] in a line: Cmax in Sprague-Dawley rat at 2.5 mg/kg,iv administration. The data set is classed as ADME, organism-based. Conditions: in vivo.
In data set [16] the target is High affinity cAMP-specific and IBMX-insensitive 3',5'-cyclic phosphodiesterase 8A (Homo sapiens, UniProt O60658). As to the kind of experiment: Inhibition of PDE8A (480 to 820 residues) (unknown origin) using 3H-cAMP as substrate.
The test system of data set [17] is Rattus norvegicus. The experiment in a line: Antifibrotic activity against bile duct ligation induced Sprague-Dawley rat liver fibrosis model assessed as reduction in total bile acid level at 2.5 mg/kg,ip administrated once daily for 21 days. The data set is classed as functional, organism-based. The settings on record: time 21.0 day.
The test system of data set [18] is Rattus norvegicus. As to the kind of experiment: Antifibrotic activity against bile duct ligation induced Sprague-Dawley rat liver fibrosis model assessed as reduction in collagen deposition at 2.5 mg/kg,ip administrated once daily for 21 days by Masson's trichome staining based analysis. Conditions: time 21.0 day. The data set is classed as functional, organism-based.

A short description of data set [19]: MRT in Sprague-Dawley rat at 2.5 mg/kg,iv administration. The settings on record: in vivo. The class given is ADME, organism-based.

Active and inactive are the calls of the source. The calls are words filed in the database; no cut-off is given here.

Chain of Cytochrome P450 2C19 (P33261 whole entry, the tested form may be a part): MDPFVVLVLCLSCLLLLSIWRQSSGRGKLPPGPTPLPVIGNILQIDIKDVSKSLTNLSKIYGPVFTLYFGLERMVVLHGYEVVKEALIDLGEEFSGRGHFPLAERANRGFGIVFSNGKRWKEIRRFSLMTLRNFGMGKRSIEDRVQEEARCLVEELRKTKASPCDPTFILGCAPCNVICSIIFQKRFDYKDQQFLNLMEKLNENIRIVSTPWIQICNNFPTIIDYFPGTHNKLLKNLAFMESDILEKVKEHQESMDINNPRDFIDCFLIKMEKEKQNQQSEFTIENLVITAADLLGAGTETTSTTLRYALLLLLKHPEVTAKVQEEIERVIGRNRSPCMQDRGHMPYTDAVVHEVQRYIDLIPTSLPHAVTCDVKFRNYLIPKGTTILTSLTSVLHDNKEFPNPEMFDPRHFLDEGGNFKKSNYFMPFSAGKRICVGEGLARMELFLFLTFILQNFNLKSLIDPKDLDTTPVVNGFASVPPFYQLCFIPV
Chain of cGMP-inhibited 3',5'-cyclic phosphodiesterase 3A (Q14432 whole entry, the tested form may be a part): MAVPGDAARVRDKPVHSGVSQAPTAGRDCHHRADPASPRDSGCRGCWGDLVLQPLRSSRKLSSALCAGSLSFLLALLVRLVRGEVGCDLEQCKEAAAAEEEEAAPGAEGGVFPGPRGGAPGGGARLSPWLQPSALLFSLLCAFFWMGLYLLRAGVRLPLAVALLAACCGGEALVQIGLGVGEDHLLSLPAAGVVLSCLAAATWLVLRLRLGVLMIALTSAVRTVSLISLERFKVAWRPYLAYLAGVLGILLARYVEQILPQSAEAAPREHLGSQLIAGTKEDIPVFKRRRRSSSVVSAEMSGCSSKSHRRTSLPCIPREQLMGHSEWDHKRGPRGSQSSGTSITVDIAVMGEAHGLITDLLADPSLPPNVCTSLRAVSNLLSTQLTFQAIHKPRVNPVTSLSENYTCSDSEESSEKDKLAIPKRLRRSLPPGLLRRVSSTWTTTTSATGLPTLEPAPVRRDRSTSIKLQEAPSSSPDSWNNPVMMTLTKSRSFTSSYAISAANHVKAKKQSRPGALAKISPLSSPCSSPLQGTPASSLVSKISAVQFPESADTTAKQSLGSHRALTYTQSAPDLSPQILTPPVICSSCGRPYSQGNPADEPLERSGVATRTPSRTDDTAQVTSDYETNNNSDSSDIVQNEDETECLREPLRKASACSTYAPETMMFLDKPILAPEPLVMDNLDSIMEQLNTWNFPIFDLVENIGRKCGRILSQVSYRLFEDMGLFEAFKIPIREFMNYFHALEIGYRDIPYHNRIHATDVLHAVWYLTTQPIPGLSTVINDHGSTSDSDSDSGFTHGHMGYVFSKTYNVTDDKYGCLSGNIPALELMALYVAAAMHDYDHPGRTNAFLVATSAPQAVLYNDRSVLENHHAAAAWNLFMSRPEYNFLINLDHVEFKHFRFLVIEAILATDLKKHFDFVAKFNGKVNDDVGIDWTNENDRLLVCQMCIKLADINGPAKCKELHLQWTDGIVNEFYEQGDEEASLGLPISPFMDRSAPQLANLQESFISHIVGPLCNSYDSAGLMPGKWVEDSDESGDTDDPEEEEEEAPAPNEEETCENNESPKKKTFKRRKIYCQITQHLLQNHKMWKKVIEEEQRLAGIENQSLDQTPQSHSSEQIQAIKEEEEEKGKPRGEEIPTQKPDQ
Chain of High affinity 3',5'-cyclic-AMP phosphodiesterase 7A (Q13946 whole entry, the tested form may be a part): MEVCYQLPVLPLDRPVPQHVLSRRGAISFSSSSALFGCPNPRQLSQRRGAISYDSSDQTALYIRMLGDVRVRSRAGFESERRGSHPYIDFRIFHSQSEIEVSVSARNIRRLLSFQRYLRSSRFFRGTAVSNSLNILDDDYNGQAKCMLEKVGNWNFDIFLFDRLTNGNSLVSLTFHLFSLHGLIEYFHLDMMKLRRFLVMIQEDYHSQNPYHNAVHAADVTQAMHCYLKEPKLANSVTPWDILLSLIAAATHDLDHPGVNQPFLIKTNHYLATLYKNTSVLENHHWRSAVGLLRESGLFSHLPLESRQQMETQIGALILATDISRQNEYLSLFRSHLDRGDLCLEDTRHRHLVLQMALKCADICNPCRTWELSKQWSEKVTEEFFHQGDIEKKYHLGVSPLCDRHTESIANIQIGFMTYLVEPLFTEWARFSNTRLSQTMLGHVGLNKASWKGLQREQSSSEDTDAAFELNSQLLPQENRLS
Chain of High affinity cAMP-specific and IBMX-insensitive 3',5'-cyclic phosphodiesterase 8A (O60658 whole entry, the tested form may be a part): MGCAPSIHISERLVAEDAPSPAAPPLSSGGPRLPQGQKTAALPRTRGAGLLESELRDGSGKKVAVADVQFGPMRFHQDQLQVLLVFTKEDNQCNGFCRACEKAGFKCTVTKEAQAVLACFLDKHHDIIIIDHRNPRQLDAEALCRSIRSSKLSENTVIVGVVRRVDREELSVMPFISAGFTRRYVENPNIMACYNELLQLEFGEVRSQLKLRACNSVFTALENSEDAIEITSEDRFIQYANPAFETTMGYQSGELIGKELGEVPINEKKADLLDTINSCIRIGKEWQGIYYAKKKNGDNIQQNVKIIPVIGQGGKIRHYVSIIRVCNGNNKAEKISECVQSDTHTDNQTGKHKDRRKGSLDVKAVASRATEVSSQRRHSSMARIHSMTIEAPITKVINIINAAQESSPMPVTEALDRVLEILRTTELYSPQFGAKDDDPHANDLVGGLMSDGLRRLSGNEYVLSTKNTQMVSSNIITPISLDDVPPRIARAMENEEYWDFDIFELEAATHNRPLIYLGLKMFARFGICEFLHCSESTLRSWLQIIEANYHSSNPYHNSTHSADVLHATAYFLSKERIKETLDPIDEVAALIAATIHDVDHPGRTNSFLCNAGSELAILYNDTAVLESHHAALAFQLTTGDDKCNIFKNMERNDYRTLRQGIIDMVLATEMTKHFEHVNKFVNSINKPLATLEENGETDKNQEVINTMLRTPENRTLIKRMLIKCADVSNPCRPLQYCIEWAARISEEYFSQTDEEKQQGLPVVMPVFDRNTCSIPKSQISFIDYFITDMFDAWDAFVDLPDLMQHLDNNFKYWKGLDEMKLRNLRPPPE
Chain of Dual specificity calcium/calmodulin-dependent 3',5'-cyclic nucleotide phosphodiesterase 1C (Q14123 whole entry, the tested form may be a part): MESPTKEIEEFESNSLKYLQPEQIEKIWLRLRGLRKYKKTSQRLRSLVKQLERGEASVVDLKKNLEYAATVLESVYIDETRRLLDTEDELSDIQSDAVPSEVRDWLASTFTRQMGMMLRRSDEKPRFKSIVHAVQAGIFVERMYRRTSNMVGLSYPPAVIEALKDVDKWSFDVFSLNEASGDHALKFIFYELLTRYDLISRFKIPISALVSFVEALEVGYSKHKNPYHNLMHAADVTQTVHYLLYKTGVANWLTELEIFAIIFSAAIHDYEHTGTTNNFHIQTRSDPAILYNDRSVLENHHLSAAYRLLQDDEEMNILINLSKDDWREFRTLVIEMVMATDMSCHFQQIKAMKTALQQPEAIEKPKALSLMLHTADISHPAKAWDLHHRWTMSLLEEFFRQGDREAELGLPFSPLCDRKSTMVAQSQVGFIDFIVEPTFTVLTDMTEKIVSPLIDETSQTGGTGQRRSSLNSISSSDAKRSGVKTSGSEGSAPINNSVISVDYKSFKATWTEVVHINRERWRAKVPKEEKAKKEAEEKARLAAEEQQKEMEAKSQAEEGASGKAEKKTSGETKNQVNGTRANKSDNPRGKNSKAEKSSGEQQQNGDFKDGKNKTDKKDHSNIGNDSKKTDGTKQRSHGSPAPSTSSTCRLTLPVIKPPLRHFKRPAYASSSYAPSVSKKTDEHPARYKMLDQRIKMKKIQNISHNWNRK
Chain of Cytochrome P450 3A4 (P08684 whole entry): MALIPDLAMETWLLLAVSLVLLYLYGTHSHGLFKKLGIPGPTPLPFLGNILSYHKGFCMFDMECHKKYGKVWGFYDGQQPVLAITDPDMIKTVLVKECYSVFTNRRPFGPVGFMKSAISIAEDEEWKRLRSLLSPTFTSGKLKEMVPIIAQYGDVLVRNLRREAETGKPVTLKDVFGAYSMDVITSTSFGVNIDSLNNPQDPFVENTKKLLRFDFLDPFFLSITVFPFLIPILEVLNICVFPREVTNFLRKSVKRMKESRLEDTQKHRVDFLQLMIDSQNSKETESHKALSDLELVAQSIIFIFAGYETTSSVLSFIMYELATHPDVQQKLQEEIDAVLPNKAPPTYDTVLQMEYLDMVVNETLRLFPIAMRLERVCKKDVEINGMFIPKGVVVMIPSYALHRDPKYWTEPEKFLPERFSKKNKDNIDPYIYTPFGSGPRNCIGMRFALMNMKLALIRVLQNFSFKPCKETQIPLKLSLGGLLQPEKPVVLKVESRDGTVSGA

Regarding `CC1=C(C(=O)OCC2CCCCC2)C(c2ccc(OC(F)F)c(OCC3CC3)c2)N(C(=O)SCc2ccccc2)C(=O)N1` (stereo unspecified), the Activity entry in the data set with LX-2 [1] was “Dose-Dependent Effect”. Besides, the results for the Ratio IC50 in [2] and in data set [10] were 176 and 354, respectively. In [3], this molecule showed a half-life at 1.5 µM of 14.1 min. The result with Rattus norvegicus [4], in the data set with Rattus norvegicus [5], in the data set with Rattus norvegicus [9], in the data set with Rattus norvegicus [12], in the data set with LX-2 [13] and in the data set with Rattus norvegicus [17] was Active. For the same molecule, the result in the data set on Rattus norvegicus [18] was Active. In addition, the IC50 is more than 5 µM in [6]; more than 25 µM on Cytochrome P450 3A4; more than 25 µM on Cytochrome P450 2C19; 10 nM in [11]; more than 5 µM in [14]; 1760 nM in [16]. In data set [7], the Vd amounted to 0.698 L/kg. Moreover, the clearance in data set [8] was determined as 6.56 mL/min/kg. In addition, the Cmax in data set [15] was found to be 25000 ng/mL. For the same molecule, the MRT in data set [19] came out at 1.77 h.

The term half-life denotes the time in which the quantity being followed falls by half. Low values mean fast loss, high ones slow loss. By IC50 is commonly meant the midpoint of a concentration-inhibition curve. By clearance is commonly meant a measure of how efficiently the substance is removed, as volume per time. Higher therefore signals a high capacity for elimination. As usually defined, the Cmax is the maximum level reached in the sampled fluid or tissue. By MRT is commonly meant the average time that molecules of a dose stay in the body.
